Assay results: patent US9497970B2, “Pesticide compounds” (priority 2013, dated 2016)

What was measured:
Type in all cases: in vivo
[1] = tested on: Tobacco Budworm (Heliothis virescens); assay: B.7 Tobacco Budworm (Heliothis virescens) I, microtiter plate insect diet; conditions: 120 h, 800 ppm, sprayed onto insect diet, 5 days, in comparison with untreated controls, read-out: mortality (egg and larval)
Procedure, shortened: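 96-well plates with insect diet and 15-25 H. virescens eggs; compounds in 75% water/25% DMSO sprayed onto diet at several concentrations, two replicates. Plates held at about 28±1° C. and 80±5% relative humidity for 5 days, then egg and larval mortality scored visually.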

[2] = tested on: Diamond Back Moth (Plutella xylostella); assay: B.1 Diamond Back Moth (Plutella xylostella), cabbage leaf dip; conditions: foliar, 500 ppm, 3rd instar larvae on dipped cabbage leaves, 72 hours after treatment, in comparison with untreated controls, read-out: mortality
Procedure, shortened: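 Cabbage leaves dipped in compound in 1:1 water:acetone with 0.01% Kinetic HV surfactant, air-dried, then infested with ten 3rd-instar larvae on moist filter paper. Mortality scored at 72 h after treatment; feeding damage rated on a 0-100% scale.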

[3] = tested on: Silverleaf Whitefly (Bemisia argentifoli); assay: B.5 Silverleaf Whitefly (Bemisia argentifoli), sprayed cotton plants; conditions: 72 h, whitefly adults on sprayed cotton plants, 3 days after treatment, in comparison with untreated controls
Procedure: B.5 Silverleaf Whitefly (Bemisia argentifoli)
(§1) The active compounds were formulated by a Tecan liquid handler in 100% cyclohexanone as a 10,000 ppm solution supplied in tubes. The 10,000 ppm solution was serially diluted in 100% cyclohexanone to make interim solutions. These served as stock solutions for which final dilutions were made by the Tecan in 50% acetone:50% water (v/v) into 5 or 10 ml glass vials. A nonionic surfactant (Kinetic®) was included in the solution at a volume of 0.01% (v/v). The vials were then inserted into an automated electrostatic sprayer equipped with an atomizing nozzle for application to plants/insects.
Cotton plants at the cotyledon stage (one plant per pot) were sprayed by an automated electrostatic plant sprayer equipped with an atomizing spray nozzle. The plants were dried in the sprayer fume hood and then removed from the sprayer. Each pot was placed into a plastic cup and about 10 to 12 whitefly adults (approximately 3-5 days old) were introduced. The insects were collected using an aspirator and a nontoxic Tygon® tubing connected to a barrier pipette tip. The tip, containing the collected insects, was then gently inserted into the soil containing the treated plant, allowing insects to crawl out of the tip to reach the foliage for feeding. Cups were covered with a reusable screened lid. Test plants were maintained in a growth room at about 25° C. and about 20-40% relative humidity for 3 days, avoiding direct exposure to fluorescent light (24 hour photoperiod) to prevent trapping of heat inside the cup. Mortality was assessed 3 days after treatment, compared to untreated control plants.

[4] = tested on: Mediterranean Fruitfly (Ceratitis capitata); assay: B.6 Mediterranean Fruitfly (Ceratitis capitata), microtiter plate insect diet; conditions: 120 h, 800 ppm, sprayed onto insect diet, 5 days, in comparison with untreated controls, read-out: mortality (egg and larval)
Procedure, shortened: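 Insect diet with 50-80 C. capitata eggs sprayed with compounds formulated in 75% water/25% DMSO, at different concentrations, two replications. Incubation at about 28±1° C and 80±5% relative humidity for 5 days, then egg and larval mortality assessed visually.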

[5] = tested on: Yellow Fever Mosquito (Aedes aegypti); assay: whole plant or invertebrate; conditions: 48 h, freshly hatched larvae in tap water, 2 days, in comparison with untreated controls, read-out: mortality (larval)
Procedure: B.11 Yellow Fever Mosquito (Aedes aegypti)
For evaluating control of yellow fever mosquito (Aedes aegypti) the test unit consisted of 96-well-microtiter plates containing 200 μl of tap water per well and 5-15 freshly hatched A. aegypti larvae.
The active compounds were formulated using a solution containing 75% (v/v) water and 25% (v/v) DMSO. Different concentrations of formulated compounds or mixtures were sprayed onto the insect diet at 2.5 μl, using a custom built micro atomizer, at two replications.

[6] = tested on: Orchid thrips (dichromothrips corbetti); assay: B.12 Orchid thrips (dichromothrips corbetti), floral-immersion technique; conditions: adult thrips on dipped orchid petals, 72 hours after treatment, in comparison with untreated controls
Procedure, shortened: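 Whole orchid flower petals were dipped in compound in 1:1 acetone:water with 0.01% v/v Kinetic HV, dried, and enclosed with about 20 adult thrips. They were held under continuous light at about 28° C. Live thrips were counted and percent mortality recorded at 72 hours.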

[7] = tested on: Boll Weevil (Anthonomus grandis); assay: B.3 Boll Weevil (Anthonomus grandis), microtiter plate insect diet; conditions: 120 h, 800 ppm, sprayed onto insect diet, 5 days, in comparison with untreated controls, read-out: mortality (egg and larval)
Procedure, shortened: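 Compounds in 25% DMSO/water sprayed at several concentrations onto insect diet in microtiter wells holding 5–10 A. grandis eggs, two replicates. Plates kept 5 days at about 25±1 °C and 75±5% RH. Egg and larval mortality scored visually.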

[8] = tested on: Southern Armyworm (Spodoptera eridania), 2nd Instar Larvae; assay: B.10 Southern Armyworm (Spodoptera eridania), 2nd Instar Larvae, sprayed lima bean plants; conditions: 96 h, 300 ppm, larvae on sprayed lima bean plants, 4 days after treatment, in comparison with untreated controls, read-out: mortality
Procedure: B.10 Southern Armyworm (Spodoptera eridania), 2nd Instar Larvae
as §1
Lima bean plants (variety Sieva) were grown 2 plants to a pot and selected for treatment at the 1st true leaf stage. Test solutions were sprayed onto the foliage by an automated electrostatic plant sprayer equipped with an atomizing spray nozzle. The plants were dried in the sprayer fume hood and then removed from the sprayer. Each pot was placed into perforated plastic bags with a zip closure. About 10 to 11 armyworm larvae were placed into the bag and the bags zipped closed. Test plants were maintained in a growth room at about 25° C. and about 20-40% relative humidity for 4 days, avoiding direct exposure to fluorescent light (24 hour photoperiod) to prevent trapping of heat inside the bags. Mortality and reduced feeding were assessed 4 days after treatment, compared to untreated control plants.

[9] = tested on: Green Peach Aphid (Myzus persicae); assay: B.9 Green Peach Aphid (Myzus persicae), sprayed bell pepper plants; conditions: 120 h, infested bell pepper plants sprayed, after 5 days, in comparison with untreated controls
Procedure: B.9 Green Peach Aphid (Myzus persicae)
as §1, with “in 100% cyclohexa none as a” for “in 100% cyclohexanone as a”
Bell pepper plants at the first true-leaf stage were infested prior to treatment by placing heavily infested leaves from the main colony on top of the treatment plants. Aphids were allowed to transfer overnight to accomplish an infestation of 30-50 aphids per plant and the host leaves were removed. The infested plants were then sprayed by an automated electrostatic plant sprayer equipped with an atomizing spray nozzle. The plants were dried in the sprayer fume hood, removed, and then maintained in a growth room under fluorescent lighting in a 24-hr photoperiod at about 25° C. and about 20-40% relative humidity. Aphid mortality on the treated plants, relative to mortality on untreated control plants, was determined after 5 days.

CC(C)c1ccccc1N1CCCSC1=NN=Cc1ccc2c(ccc3c2ncn3-c2ccc(OC(F)(F)F)cc2)c1 (stereo in doubt) [C-55, (Z)-3-(2-isopropylphenyl)-2-((E)-((3-(4-(trifluoromethoxy)phenyl)-3H-naphtho[1,2-d]imidazol-7-yl)methylene)hydrazono)-1,3-thiazinane]
≥ 75%: mortality at 800 ppm [1] | mortality at 500 ppm [2] | mortality at 300 ppm [3] | mortality at 800 ppm [4] | mortality at 800 ppm [5] | mortality at 500 ppm [6] | mortality at 800 ppm [7] | mortality at 300 ppm [8]

Cc1cc(Br)cc(C)c1NC(=S)N/N=C/c1ccc2c(ccc3c2ncn3-c2ccc(OC(F)(F)F)cc2)c1 [C-4, 1-(4-bromo-2,6-dimethyl-phenyl)-3-[(E)-[3-[4-(trifluoromethoxy)phenyl]benzo[e]benzimidazol-7-yl]methyleneamino]thiourea]
≥ 75%: mortality at 800 ppm [1] | mortality at 500 ppm [2] | mortality at 800 ppm [4] | mortality at 800 ppm [5] | mortality at 500 ppm [6] | mortality at 800 ppm [9] | mortality at 800 ppm [7]

CCc1ccccc1NC(=S)N/N=C/c1ccc2c(c1)CCc1c-2cnn1-c1ccc(OC(F)(F)F)cc1 [C-19, 1-(2-ethylphenyl)-3-[[3-[4-(trifluoromethoxy)phenyl]-5,8-dihydro-4H-benzo[e]indazol-7-ylidene]methylimino]thiourea]
≥ 75%: mortality at 300 ppm [3]

FC(F)(F)Oc1ccc(-n2cnc3c4ccc(/C=N/NC(=S)Nc5ccccc5C(F)(F)F)cc4ccc32)cc1 [C-24, 1-[[3-[4-(trifluoromethoxy)phenyl]-9aH-benzo[e]benzimidazol-7-ylidene]methylimino]-3-[2-(trifluoromethyl)phenyl]isothiourea]
≥ 75%: mortality at 500 ppm [2] | mortality at 300 ppm [3] | mortality at 800 ppm [4] | mortality at 500 ppm [6] | mortality at 800 ppm [7]

COc1ccc(C)cc1NC(=S)N/N=C/c1ccc2c(ccc3c2ncn3-c2ccc(OC(F)(F)F)cc2)c1 [C-25, 1-(2-methoxy-5-methyl-phenyl)-3-[(E)-[3-[4-(trifluoromethoxy)phenyl]benzo [e]benzimidazol-7-yl]methyleneamino] thiourea]
≥ 75%: mortality at 800 ppm [4] | mortality at 800 ppm [9] | mortality at 800 ppm [7] | mortality at 300 ppm [8]

C/C(=N\NC(=S)Nc1c(C)cccc1C)c1ccc2c(ccc3c2ncn3-c2ccc(OC(F)(F)F)cc2)c1 [C-58, 1-(2,6-dimethylphenyl)-3-[(E)-1-[3-[4-(trifluoromethoxy)phenyl]benzo[e]benzimidazol-7-yl]ethylideneamino]thiourea]
≥ 75%: mortality at 800 ppm [1] | mortality at 500 ppm [2] | mortality at 800 ppm [4] | mortality at 800 ppm [5] | mortality at 500 ppm [6] | mortality at 800 ppm [9] | mortality at 800 ppm [7] | mortality at 300 ppm [8]

Cc1cccc(Cl)c1NC(=S)N/N=C/c1ccc2c(ccc3c2ncn3-c2ccc(SC(F)(F)F)cc2)c1 [C-74, 1-(2-chloro-6-methyl-phenyl)-3-[(E)-[3-[4-(trifluoromethylsulfanyl)phenyl]benzo[e]benzimidazol-7-yl]methyleneamino]thiourea]
≥ 75%: mortality at 800 ppm [1] | mortality at 500 ppm [2] | mortality at 300 ppm [3] | mortality at 800 ppm [4] | mortality at 800 ppm [5] | mortality at 800 ppm [7] | mortality at 300 ppm [8]

CCc1cccc(C)c1NC(=S)N/N=C/c1ccc2c(ccc3c2ncn3-c2ccc(C(F)(F)F)cc2)c1 [C-78, 1-(2-ethyl-6-methyl-phenyl)-3-[(E)-[3-[4-(trifluoromethyl)phenyl]benzo[e]benzimidazol-7-yl]methyleneamino] thiourea]
≥ 75%: mortality at 800 ppm [1] | mortality at 500 ppm [2] | mortality at 300 ppm [3] | mortality at 800 ppm [4] | mortality at 500 ppm [6] | mortality at 800 ppm [7] | mortality at 300 ppm [8]

Cc1cccc(Cl)c1NC(=S)N/N=C/c1ccc2c(ccc3c2ncn3-c2ccc(OC(F)(F)F)cc2)c1 [C-79, 1-(2-chloro-6-methyl-phenyl)-3-[(E)-[3-[4-(trifluoromethoxy)phenyl]benzo[e]benzimidazol-7-yl]methyleneamino] thiourea]
≥ 75%: mortality at 800 ppm [1] | mortality at 500 ppm [2] | mortality at 800 ppm [4] | mortality at 800 ppm [5] | mortality at 500 ppm [6] | mortality at 800 ppm [9] | mortality at 800 ppm [7] | mortality at 300 ppm [8]

CCc1cccc(C)c1NC(=S)N/N=C/c1ccc2c(ccc3c(-c4ccc(OC(F)(F)F)cc4)n(C)nc32)c1 [C-92, 1-(2-ethyl-6-methyl-phenyl)-3-[(E)-[2-methyl-3-[4-(trifluoromethoxy)phenyl]benzo[g]indazol-7-yl]methyleneamino] thiourea]
≥ 75%: mortality at 800 ppm [1] | mortality at 500 ppm [2] | mortality at 800 ppm [4] | mortality at 800 ppm [5] | mortality at 500 ppm [6] | mortality at 800 ppm [9] | mortality at 800 ppm [7]

O=C(N/N=C/c1ccc2c(ccc3c2ncn3-c2ccc(OC(F)(F)F)cc2)c1)Nc1ccccc1Cl [C-100, 3-(2-chlorophenyl)-1-[[3-[4-(trifluoromethoxy)phenyl]-8H-benzo[e]benzimidazol-7-ylidene]methylimino] isourea]
≥ 75%: mortality at 300 ppm [3]

Cc1cccc(C)c1NC(=S)N/N=C/c1ccc2c(ccc3c2ncn3-c2ccc(C(F)(F)F)cc2F)c1 [C-113, 1-(2,6-dimethylphenyl)-3-[[3-[2-fluoro-4-(trifluoromethyl)phenyl]-3aH-benzo[e]benzimidazol-7-ylidene]methylimino]thiourea]
≥ 75%: mortality at 800 ppm [1] | mortality at 800 ppm [4] | mortality at 800 ppm [5] | mortality at 800 ppm [9] | mortality at 800 ppm [7]
